In the NIST ThermoML archive (doi:10.1021/je101361u):

Experiment: xn = mol fraction of the nth substance listed
Conditions: 101.3 kPa, Liquid, Vibrating tube method

CCOCCOCCOCC [diethylene glycol diethyl ether] + ClCCCl
mass density [kg/m3]
Conditions | 283.15 K | 288.15 K | 293.15 K | 298.15 K | 303.15 K | 308.15 K
x2 = 0.0234 | 920.54 | 915.7 | 910.83 | 905.98 | 901.12 | 896.25
x2 = 0.0504 | 925.19 | 920.3 | 915.41 | 910.52 | 905.62 | 900.73
x2 = 0.0751 | 929.56 | 924.64 | 919.72 | 914.8 | 909.87 | 904.95
x2 = 0.1009 | 934.31 | 929.36 | 924.39 | 919.44 | 914.47 | 909.51
x2 = 0.1504 | 943.66 | 938.64 | 933.61 | 928.58 | 923.55 | 918.52
x2 = 0.2 | 953.71 | 948.62 | 943.52 | 938.42 | 933.31 | 928.2
x2 = 0.2546 | 965.43 | 960.24 | 955.05 | 949.86 | 944.67 | 939.47
x2 = 0.2999 | 975.65 | 970.39 | 965.13 | 959.86 | 954.59 | 949.32
x2 = 0.35 | 987.75 | 982.41 | 977.05 | 971.69 | 966.34 | 960.97
x2 = 0.4006 | 1000.78 | 995.34 | 989.89 | 984.44 | 978.99 | 973.53
x2 = 0.4502 | 1014.42 | 1008.87 | 1003.32 | 997.77 | 992.22 | 986.66
x2 = 0.5002 | 1029.16 | 1023.52 | 1017.86 | 1012.21 | 1006.55 | –
x2 = 0.5499 | 1044.87 | 1039.11 | 1033.35 | 1027.58 | 1021.8 | –
x2 = 0.6 | 1061.87 | 1056 | 1050.12 | 1044.23 | 1038.33 | –
x2 = 0.65 | 1080.19 | 1074.19 | 1068.18 | 1062.16 | 1056.14 | –
x2 = 0.6999 | 1100.05 | 1093.92 | 1087.77 | 1081.63 | 1075.47 | –
x2 = 0.7492 | 1121.14 | 1114.87 | 1108.58 | 1102.29 | 1095.99 | –
x2 = 0.8 | 1145.22 | 1138.79 | 1132.34 | 1125.89 | 1119.42 | –
x2 = 0.85 | 1171.12 | 1164.52 | 1157.9 | 1151.27 | 1144.62 | –
x2 = 0.9 | 1199.76 | 1192.98 | 1186.17 | 1179.35 | 1172.51 | –
x2 = 0.95 | 1231.56 | 1224.58 | 1217.56 | 1210.52 | 1203.45 | –
x2 = 0.975 | 1248.9 | 1241.8 | 1234.66 | 1227.5 | 1220.32 | –
